ChEMBL document CHEMBL5291721, “A preclinical secondary pharmacology resource illuminates target-adverse drug reaction associations of marketed drugs” (Nat Commun, 2023)

Assays:
[1] = target: Kappa-type opioid receptor (Homo sapiens, UniProt P41145)
[2] = target: 5-hydroxytryptamine receptor 2A (Homo sapiens, UniProt P28223); assay type: functional, cell-based
Mu-type opioid receptor [3] = target: T1, Mu-type opioid receptor (Homo sapiens, UniProt P35372)
Vasopressin V2 receptor = Vasopressin V2 receptor (Homo sapiens, UniProt P30518)
Melanocortin receptor 4 = Melanocortin receptor 4 (Homo sapiens, UniProt P32245)
[4] = target: T2, Alpha-2B adrenergic receptor (Homo sapiens, UniProt P18089)
T2 sequence (P18089 whole entry): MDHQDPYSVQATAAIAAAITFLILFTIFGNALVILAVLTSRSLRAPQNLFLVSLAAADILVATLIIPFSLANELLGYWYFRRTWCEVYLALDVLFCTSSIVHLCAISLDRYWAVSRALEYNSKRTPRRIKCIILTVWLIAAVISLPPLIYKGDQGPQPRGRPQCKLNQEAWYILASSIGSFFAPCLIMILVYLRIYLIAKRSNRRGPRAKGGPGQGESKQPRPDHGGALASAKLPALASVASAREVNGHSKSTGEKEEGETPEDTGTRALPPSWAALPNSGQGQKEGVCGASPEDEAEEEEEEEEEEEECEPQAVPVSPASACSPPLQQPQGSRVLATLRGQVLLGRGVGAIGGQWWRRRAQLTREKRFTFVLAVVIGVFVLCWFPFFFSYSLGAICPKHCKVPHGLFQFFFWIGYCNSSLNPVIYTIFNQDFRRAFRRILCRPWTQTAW

[5] = target: T3, Muscarinic acetylcholine receptor M2 (Homo sapiens, UniProt P08172); assay type: functional, cell-based
T3 sequence (P08172 whole entry): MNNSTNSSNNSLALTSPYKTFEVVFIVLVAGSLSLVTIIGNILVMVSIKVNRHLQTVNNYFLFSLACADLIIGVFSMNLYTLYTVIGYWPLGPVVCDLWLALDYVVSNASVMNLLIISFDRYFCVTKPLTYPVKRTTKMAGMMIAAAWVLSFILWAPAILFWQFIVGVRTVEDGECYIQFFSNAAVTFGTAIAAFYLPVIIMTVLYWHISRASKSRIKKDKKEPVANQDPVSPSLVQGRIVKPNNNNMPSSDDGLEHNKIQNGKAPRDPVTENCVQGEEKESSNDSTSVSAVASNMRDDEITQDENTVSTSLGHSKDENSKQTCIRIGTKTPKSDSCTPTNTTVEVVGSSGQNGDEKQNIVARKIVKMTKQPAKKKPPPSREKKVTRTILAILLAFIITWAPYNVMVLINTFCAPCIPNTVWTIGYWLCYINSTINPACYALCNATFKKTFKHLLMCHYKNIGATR

[6] = target: T4, Alpha-1A adrenergic receptor (Homo sapiens, UniProt P35348); assay type: functional, cell-based
T4 sequence (P35348 whole entry): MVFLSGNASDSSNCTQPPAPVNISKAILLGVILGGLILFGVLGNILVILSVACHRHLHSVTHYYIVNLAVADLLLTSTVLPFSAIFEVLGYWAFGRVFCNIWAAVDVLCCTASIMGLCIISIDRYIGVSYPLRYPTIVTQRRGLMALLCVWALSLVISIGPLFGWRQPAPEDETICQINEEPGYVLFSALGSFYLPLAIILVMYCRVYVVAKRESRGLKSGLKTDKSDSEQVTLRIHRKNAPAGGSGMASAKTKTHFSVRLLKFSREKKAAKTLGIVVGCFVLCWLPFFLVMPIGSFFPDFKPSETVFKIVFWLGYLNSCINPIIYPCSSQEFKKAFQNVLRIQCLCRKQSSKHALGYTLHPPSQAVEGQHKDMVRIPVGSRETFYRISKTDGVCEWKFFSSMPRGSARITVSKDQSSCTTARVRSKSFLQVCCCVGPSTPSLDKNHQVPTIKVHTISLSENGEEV

Mu-type opioid receptor [7] = target: T1, Mu-type opioid receptor; remark: listed apart in the source
[8] = target: T5, 5-hydroxytryptamine receptor 1A (Homo sapiens, UniProt P08908)
T5 sequence (P08908 whole entry): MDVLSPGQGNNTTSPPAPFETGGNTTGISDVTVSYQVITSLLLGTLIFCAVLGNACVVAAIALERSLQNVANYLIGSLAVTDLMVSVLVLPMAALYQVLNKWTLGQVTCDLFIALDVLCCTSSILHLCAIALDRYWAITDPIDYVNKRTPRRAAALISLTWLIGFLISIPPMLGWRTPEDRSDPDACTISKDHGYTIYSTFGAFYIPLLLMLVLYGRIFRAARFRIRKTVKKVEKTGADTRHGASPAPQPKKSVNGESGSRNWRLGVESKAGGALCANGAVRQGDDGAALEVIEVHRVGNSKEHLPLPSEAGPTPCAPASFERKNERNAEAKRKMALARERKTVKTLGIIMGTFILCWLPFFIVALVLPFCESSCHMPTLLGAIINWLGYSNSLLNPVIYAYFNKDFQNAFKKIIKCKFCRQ

D(3) dopamine receptor = D(3) dopamine receptor (Homo sapiens, UniProt P35462)
[9] = target: Sodium-dependent noradrenaline transporter (Homo sapiens, UniProt P23975)
[10] = target: T6, Amine oxidase [flavin-containing] A (Homo sapiens, UniProt P21397); assay type: functional
T6 sequence (P21397 whole entry): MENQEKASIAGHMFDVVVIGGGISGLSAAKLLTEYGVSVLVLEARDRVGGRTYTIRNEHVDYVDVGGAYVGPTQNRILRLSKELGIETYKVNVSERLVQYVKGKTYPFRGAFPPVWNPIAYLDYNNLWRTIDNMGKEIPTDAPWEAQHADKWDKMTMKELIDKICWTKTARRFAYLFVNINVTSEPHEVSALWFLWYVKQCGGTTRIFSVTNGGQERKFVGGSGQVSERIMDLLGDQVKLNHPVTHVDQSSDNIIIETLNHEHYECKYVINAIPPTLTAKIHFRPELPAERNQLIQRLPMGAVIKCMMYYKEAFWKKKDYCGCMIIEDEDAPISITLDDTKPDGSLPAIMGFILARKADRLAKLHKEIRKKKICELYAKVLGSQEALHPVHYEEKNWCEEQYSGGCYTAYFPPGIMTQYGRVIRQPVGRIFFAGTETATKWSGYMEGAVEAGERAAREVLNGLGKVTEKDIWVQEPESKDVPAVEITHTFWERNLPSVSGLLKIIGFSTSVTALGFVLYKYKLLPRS

[11] = target: cGMP-inhibited 3',5'-cyclic phosphodiesterase 3A (Homo sapiens, UniProt Q14432); assay type: functional
[12] = target: T4, Alpha-1A adrenergic receptor; assay type: functional, cell-based; remark: listed apart in the source
Also: assay procedure not described here.

Chain of D(3) dopamine receptor (P35462 whole entry): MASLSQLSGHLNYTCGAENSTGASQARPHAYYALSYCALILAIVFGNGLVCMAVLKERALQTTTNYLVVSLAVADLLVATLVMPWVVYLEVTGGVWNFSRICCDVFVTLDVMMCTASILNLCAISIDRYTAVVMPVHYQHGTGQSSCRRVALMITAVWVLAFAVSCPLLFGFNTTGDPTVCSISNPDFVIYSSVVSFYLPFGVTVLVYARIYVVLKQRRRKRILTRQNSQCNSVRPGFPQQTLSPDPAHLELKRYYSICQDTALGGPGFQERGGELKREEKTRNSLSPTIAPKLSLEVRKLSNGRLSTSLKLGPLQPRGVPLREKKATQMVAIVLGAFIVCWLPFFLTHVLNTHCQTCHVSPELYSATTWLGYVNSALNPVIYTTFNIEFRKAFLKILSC
T1 sequence (P35372 whole entry): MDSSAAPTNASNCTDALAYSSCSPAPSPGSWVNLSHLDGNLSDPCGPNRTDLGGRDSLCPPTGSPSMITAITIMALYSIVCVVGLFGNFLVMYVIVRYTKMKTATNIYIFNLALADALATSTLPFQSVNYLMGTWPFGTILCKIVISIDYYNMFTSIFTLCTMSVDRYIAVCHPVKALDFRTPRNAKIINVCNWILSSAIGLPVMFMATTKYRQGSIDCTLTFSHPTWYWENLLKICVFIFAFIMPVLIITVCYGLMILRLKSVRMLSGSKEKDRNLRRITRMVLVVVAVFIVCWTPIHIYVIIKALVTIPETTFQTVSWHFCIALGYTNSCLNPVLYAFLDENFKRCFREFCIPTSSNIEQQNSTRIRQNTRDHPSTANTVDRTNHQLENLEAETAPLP
Chain of Melanocortin receptor 4 (P32245 whole entry): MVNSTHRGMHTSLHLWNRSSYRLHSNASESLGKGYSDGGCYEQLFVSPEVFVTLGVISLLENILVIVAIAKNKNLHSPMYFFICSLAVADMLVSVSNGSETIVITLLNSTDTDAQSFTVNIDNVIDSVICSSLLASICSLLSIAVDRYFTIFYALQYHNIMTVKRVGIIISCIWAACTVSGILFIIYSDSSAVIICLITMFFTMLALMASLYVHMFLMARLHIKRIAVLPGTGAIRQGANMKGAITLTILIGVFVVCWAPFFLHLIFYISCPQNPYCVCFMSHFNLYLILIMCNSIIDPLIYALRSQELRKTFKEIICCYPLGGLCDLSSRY
Chain of Vasopressin V2 receptor (P30518 whole entry): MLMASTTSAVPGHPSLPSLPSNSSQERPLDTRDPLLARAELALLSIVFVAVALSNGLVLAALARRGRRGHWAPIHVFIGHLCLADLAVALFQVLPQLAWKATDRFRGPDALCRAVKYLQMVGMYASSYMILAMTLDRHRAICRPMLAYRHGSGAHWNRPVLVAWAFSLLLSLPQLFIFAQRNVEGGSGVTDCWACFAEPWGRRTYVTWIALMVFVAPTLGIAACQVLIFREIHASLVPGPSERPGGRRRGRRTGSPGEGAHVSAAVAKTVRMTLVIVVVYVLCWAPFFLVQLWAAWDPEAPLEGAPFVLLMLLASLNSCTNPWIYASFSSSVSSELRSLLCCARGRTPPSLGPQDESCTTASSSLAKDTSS
Chain of cGMP-inhibited 3',5'-cyclic phosphodiesterase 3A (Q14432 whole entry): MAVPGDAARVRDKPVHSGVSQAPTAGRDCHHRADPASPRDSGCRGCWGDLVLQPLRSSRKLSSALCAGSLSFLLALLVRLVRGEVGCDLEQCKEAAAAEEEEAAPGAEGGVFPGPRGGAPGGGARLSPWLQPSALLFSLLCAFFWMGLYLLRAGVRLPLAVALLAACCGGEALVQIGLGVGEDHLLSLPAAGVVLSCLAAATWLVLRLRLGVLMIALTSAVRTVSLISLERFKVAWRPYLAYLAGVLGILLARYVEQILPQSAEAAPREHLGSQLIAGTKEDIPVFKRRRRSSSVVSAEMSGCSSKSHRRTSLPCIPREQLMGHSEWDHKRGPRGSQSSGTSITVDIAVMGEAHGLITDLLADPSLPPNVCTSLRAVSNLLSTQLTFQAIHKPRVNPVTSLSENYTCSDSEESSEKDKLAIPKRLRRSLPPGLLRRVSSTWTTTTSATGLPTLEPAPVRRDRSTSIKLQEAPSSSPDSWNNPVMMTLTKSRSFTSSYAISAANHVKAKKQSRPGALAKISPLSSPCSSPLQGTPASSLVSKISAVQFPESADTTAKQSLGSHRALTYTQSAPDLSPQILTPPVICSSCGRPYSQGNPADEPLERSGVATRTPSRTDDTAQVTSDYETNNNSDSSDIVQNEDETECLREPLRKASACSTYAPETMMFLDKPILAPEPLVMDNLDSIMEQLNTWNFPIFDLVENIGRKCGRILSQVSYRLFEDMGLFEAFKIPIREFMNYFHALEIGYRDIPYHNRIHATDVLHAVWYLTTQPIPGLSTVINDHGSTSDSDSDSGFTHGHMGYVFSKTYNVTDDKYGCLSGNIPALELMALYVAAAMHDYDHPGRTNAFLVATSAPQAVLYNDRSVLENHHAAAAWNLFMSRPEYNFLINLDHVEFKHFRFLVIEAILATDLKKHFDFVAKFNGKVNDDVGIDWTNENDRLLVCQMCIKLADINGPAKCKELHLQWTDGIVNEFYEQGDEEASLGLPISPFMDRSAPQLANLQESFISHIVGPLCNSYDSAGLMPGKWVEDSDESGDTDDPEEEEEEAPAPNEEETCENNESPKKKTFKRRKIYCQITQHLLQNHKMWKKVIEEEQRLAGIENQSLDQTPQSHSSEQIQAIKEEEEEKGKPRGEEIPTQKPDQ
Chain of 5-hydroxytryptamine receptor 2A (P28223 whole entry): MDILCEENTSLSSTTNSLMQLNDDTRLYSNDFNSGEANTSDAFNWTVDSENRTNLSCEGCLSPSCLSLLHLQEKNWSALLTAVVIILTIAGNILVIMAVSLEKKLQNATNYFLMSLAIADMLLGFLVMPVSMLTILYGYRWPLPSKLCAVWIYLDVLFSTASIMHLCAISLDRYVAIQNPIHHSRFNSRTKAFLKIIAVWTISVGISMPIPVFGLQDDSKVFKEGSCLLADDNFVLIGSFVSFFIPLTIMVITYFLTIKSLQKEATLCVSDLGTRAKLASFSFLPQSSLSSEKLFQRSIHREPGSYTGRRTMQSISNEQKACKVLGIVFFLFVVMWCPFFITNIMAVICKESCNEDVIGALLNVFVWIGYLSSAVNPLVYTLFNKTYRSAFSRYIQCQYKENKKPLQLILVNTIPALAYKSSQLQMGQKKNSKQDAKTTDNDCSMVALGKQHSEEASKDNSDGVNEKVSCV
Chain of Kappa-type opioid receptor (P41145 whole entry): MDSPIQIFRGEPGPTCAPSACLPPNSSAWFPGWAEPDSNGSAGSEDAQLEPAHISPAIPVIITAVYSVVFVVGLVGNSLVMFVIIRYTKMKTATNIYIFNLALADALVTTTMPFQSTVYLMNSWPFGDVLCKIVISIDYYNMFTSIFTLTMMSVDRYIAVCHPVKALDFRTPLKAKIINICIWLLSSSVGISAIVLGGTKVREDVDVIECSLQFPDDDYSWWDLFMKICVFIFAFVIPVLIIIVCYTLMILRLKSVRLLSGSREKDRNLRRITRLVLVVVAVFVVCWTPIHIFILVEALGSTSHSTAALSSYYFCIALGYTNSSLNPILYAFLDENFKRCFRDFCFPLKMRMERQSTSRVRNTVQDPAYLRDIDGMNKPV
Chain of Sodium-dependent noradrenaline transporter (P23975 whole entry): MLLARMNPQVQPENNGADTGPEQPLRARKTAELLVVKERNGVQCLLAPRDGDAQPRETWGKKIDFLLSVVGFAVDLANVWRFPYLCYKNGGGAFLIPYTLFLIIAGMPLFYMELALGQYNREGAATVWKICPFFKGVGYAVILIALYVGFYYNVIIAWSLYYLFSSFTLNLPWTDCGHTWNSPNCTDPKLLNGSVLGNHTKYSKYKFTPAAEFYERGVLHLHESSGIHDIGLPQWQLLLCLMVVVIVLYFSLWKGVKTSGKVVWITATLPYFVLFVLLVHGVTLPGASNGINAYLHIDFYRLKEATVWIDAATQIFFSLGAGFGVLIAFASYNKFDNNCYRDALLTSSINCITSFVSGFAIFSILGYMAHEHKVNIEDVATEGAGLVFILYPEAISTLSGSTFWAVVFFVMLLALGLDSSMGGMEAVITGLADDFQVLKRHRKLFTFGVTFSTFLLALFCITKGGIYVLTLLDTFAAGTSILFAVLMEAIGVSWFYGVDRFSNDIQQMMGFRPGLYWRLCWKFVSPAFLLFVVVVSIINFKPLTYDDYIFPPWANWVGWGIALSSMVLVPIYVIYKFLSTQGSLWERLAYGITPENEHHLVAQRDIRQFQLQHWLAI

## CC(=O)SCC(Cc1ccccc1)C(=O)NCC(=O)OCc1ccccc1 (stereo unspecified) [RACECADOTRIL]
[1]
  AC50: 8.6 µM
[2]
  AC50: > 30 µM
Mu-type opioid receptor [3]
  AC50: > 30 µM
Vasopressin V2 receptor
  AC50: > 30 µM
Melanocortin receptor 4
  AC50: > 30 µM
[4]
  AC50: > 30 µM
[5]
  AC50: > 30 µM

## OCCOCCN1CCN(C(c2ccccc2)c2ccc(Cl)cc2)CC1 (stereo unspecified) [HYDROXYZINE]
[1]
  AC50: 8.65 µM
[2]
  AC50: > 30 µM
[6]
  AC50: 9.67 µM
Mu-type opioid receptor [3]
  AC50: > 30 µM
Vasopressin V2 receptor
  AC50: > 30 µM
Melanocortin receptor 4
  AC50: > 30 µM
[4]
  AC50: 8 µM
[5]
  AC50: > 10 µM

## CCOC(=O)[C@H](CCc1ccccc1)N[C@@H](C)C(=O)N1Cc2ccccc2C[C@H]1C(=O)O
[1]
  AC50: > 10 µM
Mu-type opioid receptor [7]
  AC50: > 30 µM
[6]
  AC50: > 30 µM
Mu-type opioid receptor [3]
  AC50: > 10 µM
[8]
  AC50: > 30 µM
Vasopressin V2 receptor
  AC50: > 30 µM
Melanocortin receptor 4
  AC50: > 30 µM
D(3) dopamine receptor
  AC50: > 30 µM
[9]
  AC50: > 30 µM
[10]
  AC50: > 30 µM
[11]
  AC50: > 30 µM
[5]
  AC50: > 10 µM
[12]
  AC50: > 30 µM

## Cc1c(C)c2c(c(C)c1O)CCC(C)(COc1ccc(CC3SC(=O)NC3=O)cc1)O2 (stereo unspecified) [TROGLITAZONE]
[1]
  AC50: 18 µM
Mu-type opioid receptor [7]
  AC50: 14 µM
[6]
  AC50: > 30 µM
Mu-type opioid receptor [3]
  AC50: > 30 µM
[8]
  AC50: 25.7 µM
Vasopressin V2 receptor
  AC50: > 30 µM
Melanocortin receptor 4
  AC50: > 30 µM
D(3) dopamine receptor
  AC50: 6.23 µM
[9]
  AC50: 4.11 µM
[10]
  AC50: > 30 µM
[11]
  AC50: 11 µM
[12]
  AC50: 3.96 µM

## CC(=O)Oc1ccccc1C(=O)O [ASPIRIN]
[1]
  AC50: > 10 µM
Mu-type opioid receptor [7]
  AC50: > 30 µM
[6]
  AC50: > 30 µM
Mu-type opioid receptor [3]
  AC50: > 30 µM
[8]
  AC50: > 30 µM
Vasopressin V2 receptor
  AC50: > 30 µM
Melanocortin receptor 4
  AC50: > 30 µM
D(3) dopamine receptor
  AC50: > 30 µM
[9]
  AC50: > 30 µM
[10]
  AC50: > 30 µM
[11]
  AC50: > 30 µM
[5]
  AC50: > 30 µM
[12]
  AC50: > 30 µM

## C=CC1=C(C(=O)O)N2C(=O)[C@@H](NC(=O)/C(=N\O)c3csc(N)n3)[C@H]2SC1
[1]
  AC50: > 10 µM
[2]
  AC50: > 30 µM
[6]
  AC50: > 30 µM
Mu-type opioid receptor [3]
  AC50: > 30 µM
Vasopressin V2 receptor
  AC50: > 30 µM
Melanocortin receptor 4
  AC50: > 30 µM
[4]
  AC50: > 10 µM
[5]
  AC50: > 10 µM

## CNC1(C)C2CCC(C2)C1(C)C (stereo unspecified) [MECAMYLAMINE]
[1]
  AC50: > 10 µM
[2]
  AC50: > 10 µM
Mu-type opioid receptor [3]
  AC50: > 30 µM
Vasopressin V2 receptor
  AC50: > 10 µM
Melanocortin receptor 4
  AC50: > 10 µM
[4]
  AC50: > 10 µM
[5]
  AC50: > 10 µM

## O=C(O)COC(=O)Cc1ccccc1Nc1c(Cl)cccc1Cl [ACECLOFENAC]
[1]
  AC50: > 10 µM
[6]
  AC50: > 30 µM
Mu-type opioid receptor [3]
  AC50: > 30 µM
Vasopressin V2 receptor
  AC50: > 30 µM
Melanocortin receptor 4
  AC50: > 30 µM
[5]
  AC50: > 10 µM

## CCOc1ccccc1OCCN[C@H](C)Cc1ccc(OC)c(S(N)(=O)=O)c1 [TAMSULOSIN]
[1]
  AC50: > 30 µM
[2]
  AC50: > 30 µM
Mu-type opioid receptor [3]
  AC50: 5.3 µM
Vasopressin V2 receptor
  AC50: > 30 µM
Melanocortin receptor 4
  AC50: > 30 µM
[4]
  AC50: 1.9 µM
[5]
  AC50: > 10 µM

## CN(C)CCC=C1c2ccccc2CCc2ccccc21 [AMITRIPTYLINE]
Mu-type opioid receptor [7]
  AC50: 9.46 µM
[6]
  AC50: 0.12 µM
Mu-type opioid receptor [3]
  AC50: > 30 µM
[8]
  AC50: 0.337 µM
Vasopressin V2 receptor
  AC50: > 30 µM
Melanocortin receptor 4
  AC50: 17.7 µM
D(3) dopamine receptor
  AC50: 0.147 µM
[10]
  AC50: > 30 µM
[11]
  AC50: > 30 µM

## Nc1nnc(-c2cccc(Cl)c2Cl)c(N)n1 [LAMOTRIGINE]
[1]
  AC50: > 10 µM
[6]
  AC50: > 30 µM
Mu-type opioid receptor [3]
  AC50: > 30 µM
Vasopressin V2 receptor
  AC50: > 30 µM
Melanocortin receptor 4
  AC50: > 30 µM
[5]
  AC50: > 10 µM

## CN(C)CCN(Cc1ccccc1)c1ccccn1 [TRIPELENNAMINE]
[1]
  AC50: 6.25 µM
[2]
  AC50: > 10 µM
Mu-type opioid receptor [7]
  AC50: > 30 µM
Mu-type opioid receptor [3]
  AC50: > 30 µM
[8]
  AC50: > 30 µM
Vasopressin V2 receptor
  AC50: > 10 µM
Melanocortin receptor 4
  AC50: > 10 µM
[4]
  AC50: 11 µM
[9]
  AC50: 2.62 µM
[10]
  AC50: > 30 µM
[11]
  AC50: > 30 µM
[5]
  AC50: > 10 µM
[12]
  AC50: > 30 µM

## O=C(c1ccccc1)c1ccc2n1CCC2C(=O)O (stereo unspecified) [KETOROLAC]
[1]
  AC50: > 30 µM
[6]
  AC50: > 30 µM
Mu-type opioid receptor [3]
  AC50: > 30 µM
Vasopressin V2 receptor
  AC50: > 10 µM
Melanocortin receptor 4
  AC50: > 10 µM
[5]
  AC50: > 30 µM

## NCC1(CC(=O)O)CCCCC1 [GABAPENTIN]
[1]
  AC50: > 10 µM
Mu-type opioid receptor [7]
  AC50: > 30 µM
[6]
  AC50: > 30 µM
Mu-type opioid receptor [3]
  AC50: > 30 µM
[8]
  AC50: > 30 µM
Vasopressin V2 receptor
  AC50: > 30 µM
Melanocortin receptor 4
  AC50: > 30 µM
D(3) dopamine receptor
  AC50: > 30 µM
[9]
  AC50: > 30 µM
[10]
  AC50: > 30 µM
[11]
  AC50: > 30 µM
[5]
  AC50: > 30 µM
[12]
  AC50: > 30 µM

## C[C@]12CCC(=O)C=C1CC[C@H]1[C@@H]3CC[C@](O)(C(=O)CO)[C@@]3(C)C[C@H](O)[C@@]12F [FLUDROCORTISONE]
[1]
  AC50: > 10 µM
[2]
  AC50: > 30 µM
[6]
  AC50: > 30 µM
Mu-type opioid receptor [3]
  AC50: > 30 µM
Vasopressin V2 receptor
  AC50: > 30 µM
Melanocortin receptor 4
  AC50: > 30 µM
[4]
  AC50: > 10 µM
[5]
  AC50: > 30 µM
